The test system of one experiment is TGFβ. The experiment is described as follows: Luciferase reporter gene assay for TGFβ activity (HEK293T SBE-Luc SMAD2/3 reporter, TGFβ agonist). In kind it is cell-based. Particulars: Homo sapiens, HEK-293T, TGFβ 5 ng/mL. Summed up: (§1)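 TGFβ activity was measured in HEK293T SBE-Luc cells stimulated with 5 ng/mL TGFβ, at compound 10000-30 nM final. ALK2 activity was measured in C2C12 BRE-Luc cells stimulated with 50 ng/mL BMP6, at compound 1000-0.3 nM final. Compound was preincubated 45 min in 2% FBS medium; after ≥18 h agonist exposure, luminescence was read and inhibition expressed as % signal loss versus background-subtracted agonist controls.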
(In general: Reporter assays use an easily measured gene product as a stand-in for the process of interest.)

A further experiment deals with T1, ALK2 (Mus musculus, UniProt P37172).
T1 construct: endogenous in cells; host or cells: C2C12-BRE (BRE-Luc reporter line, G418 selection)
T1 sequence (P37172 21-509): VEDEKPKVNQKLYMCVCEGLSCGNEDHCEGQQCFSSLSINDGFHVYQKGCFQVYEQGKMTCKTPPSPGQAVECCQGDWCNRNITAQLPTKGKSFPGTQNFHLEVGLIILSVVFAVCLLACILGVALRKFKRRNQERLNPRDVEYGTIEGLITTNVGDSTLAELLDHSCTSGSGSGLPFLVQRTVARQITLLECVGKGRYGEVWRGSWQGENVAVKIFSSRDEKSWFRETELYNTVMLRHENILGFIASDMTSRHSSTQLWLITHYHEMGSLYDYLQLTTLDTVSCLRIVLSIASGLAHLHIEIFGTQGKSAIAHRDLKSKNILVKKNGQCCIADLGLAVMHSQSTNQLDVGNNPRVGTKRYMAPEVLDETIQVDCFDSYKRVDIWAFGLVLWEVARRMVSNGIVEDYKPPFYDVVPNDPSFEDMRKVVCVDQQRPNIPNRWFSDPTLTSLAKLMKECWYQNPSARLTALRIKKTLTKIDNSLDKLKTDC
Put plainly: Luciferase reporter gene assay for ALK2 activity (C2C12 BRE-Luc SMAD1/5/8 reporter, BMP6 agonist). The class given is cell-based. The conditions noted are these: BMP6 50 ng/mL. A digest of the protocol:
as §1

Molecules are shown by their SMILES.

`CN1CCN(C2CCN(c3cnc4c(-c5cccc6[nH]ncc56)cnn4c3)CC2)CC1` [Compound 243]: the concentration for half-maximal inhibition (IC50) was > 2000 nM with TGFβ and > 1000 nM on ALK2.

Turning to `CN1CCN(C2CCN(c3cnc4c(-c5ccnc6cc(Cl)ccc56)cnn4c3)CC2)CC1` [Compound 244], the IC50 in the experiment on TGFβ amounted to 328 nM; at ALK2, 30 nM.

Take `Cc1cc(-c2cnn3cc(N4CCC(N5CCN(C)CC5)CC4)cnc23)c2ccc(C(F)(F)F)cc2n1` [Compound 245]: the IC50 in the experiment on TGFβ was 468 nM; on ALK2, > 1000 nM.

As to `CN1CCN(C2CCN(c3cnc4c(-c5cnn(C)c5)cnn4c3)CC2)CC1` [Compound 246], the IC50 in the experiment with TGFβ and on ALK2 was > 1000 nM in each case.

Turning to `CN1CCN(C2CCN(c3cnc4c(-c5ccnc6[nH]ccc56)cnn4c3)CC2)CC1` [Compound 247], the values for the IC50 in the experiment on TGFβ and at ALK2 were > 3000 nM and 13 nM, respectively.

As for `CN1CCN(C2CCN(c3cnc4c(-c5ccnc6ccsc56)cnn4c3)CC2)CC1` [Compound 248], the IC50 in the experiment on TGFβ amounted to 2880 nM; at ALK2 it was 57 nM.

Consider `CN1CCN(C2CCN(c3cnc4c(-c5ccnc(N)c5)cnn4c3)CC2)CC1` [Compound 249], for which the half-maximal inhibitory concentration (IC50) with TGFβ and at ALK2 was > 1000 nM each time.

As to `CN1CCN(C2CCN(c3cnc4c(-c5ccnc6sccc56)cnn4c3)CC2)CC1` [Compound 250], the IC50 with TGFβ came out at 202 nM; at ALK2 it was 17 nM.

With `CN1CCN(C2CCN(c3cnc4c(-c5ccnc6ccc(F)cc56)cnn4c3)CC2)CC1` [Compound 251], the IC50 was found to be 209 nM with TGFβ and 26 nM at ALK2.

As to `CN1CCN(C2CCN(c3cnc4c(-c5ccnc6ccc(OC(F)(F)F)cc56)cnn4c3)CC2)CC1` [Compound 252], the IC50 in the experiment on TGFβ stood at 12 nM; at ALK2 it was 85 nM.

Consider `CN1CCN(C2CCN(c3cnc4c(-c5ccnc6c5ccn6C)cnn4c3)CC2)CC1` [Compound 253], for which the IC50 is > 1000 nM with TGFβ and 193 nM on ALK2.

In the case of `COc1ccc2c(-c3cnn4cc(N5CCC(N6CCN(C)CC6)CC5)cnc34)ccnc2c1` [Compound 254], the half-maximal inhibitory concentration (IC50) in the experiment with TGFβ is > 1000 nM; at ALK2, 244 nM.

On to `Cc1cc(-c2cnn3cc(N4CCC(N5CCN(C)CC5)CC4)cnc23)c2ccc(F)cc2n1` [Compound 255], for which the IC50 in the experiment with TGFβ stood at 28 nM; at ALK2, 68 nM.

As for `CN1CCN(C2CCN(c3cnc4c(-c5ccnc6cc(F)ccc56)cnn4c3)CC2)CC1` [Compound 256], the 50% inhibitory concentration (IC50) in the experiment on TGFβ amounted to 104 nM; on ALK2, 10 nM.

In the case of `CN1CCN(C2CCN(c3cnc4c(-c5ccnc6cc(C(F)(F)F)ccc56)cnn4c3)CC2)CC1` [Compound 257], the IC50 with TGFβ and on ALK2 was > 1000 nM in each case.

On to `CNC(=O)c1cc(-c2cnn3cc(N4CCC(N5CCN(C)CC5)CC4)cnc23)ccn1` [Compound 258], for which the 50% inhibitory concentration (IC50) worked out at 964 nM in the experiment on TGFβ and 197 nM on ALK2.

Turning to `CN1CCN(C2CCN(c3cnc4c(-c5ccnc6c(F)cccc56)cnn4c3)CC2)CC1` [Compound 260], the figures for the IC50 in the experiment with TGFβ and on ALK2 were 229 nM and 12 nM, respectively.

As for `CN1CCN(C2CCN(c3cnc4c(-c5ccnc6ncccc56)cnn4c3)CC2)CC1` [Compound 261], the IC50 in the experiment on TGFβ stood at 916 nM; on ALK2 it was 19 nM.

Consider `CN1CCN(C2CCN(c3cnc4c(-c5ccnc6cc(OC(F)(F)F)ccc56)cnn4c3)CC2)CC1` [Compound 262], for which the half-inhibitory concentration (IC50) is > 3000 nM in the experiment with TGFβ and > 1000 nM at ALK2.

In the case of `CN1CCN(C2CCN(c3cnc4c(-c5ccnc6cc(C#N)ccc56)cnn4c3)CC2)CC1` [Compound 263], the concentration for half-maximal inhibition (IC50) came to 424 nM in the experiment with TGFβ and 295 nM at ALK2.

For the compound `CN1CCN(C2CCN(c3cnc4c(-c5ccnc6cc(F)c(N)cc56)cnn4c3)CC2)CC1` [Compound 264], the IC50 came out at 383 nM with TGFβ and 18 nM at ALK2.

On to `Cc1cc2c(-c3cnn4cc(N5CCC(N6CCN(C)CC6)CC5)cnc34)ccnc2cc1F` [Compound 266], for which the results for the IC50 in the experiment on TGFβ and at ALK2 were 138 nM and 17 nM, respectively.

Turning to `CN1CCN(C2CCN(c3cnc4c(-c5ccnc6ccc(Cl)c(F)c56)cnn4c3)CC2)CC1` [Compound 267], the results for the 50% inhibitory concentration (IC50) in the experiment with TGFβ and on ALK2 were > 2000 nM and 162 nM, respectively.

With `Cc1cc(-c2cnn3cc(N4CCC(N5CCN(C)CC5)CC4)cnc23)c2cccc(C(F)(F)F)c2n1` [Compound 268], the results for the concentration for half-maximal inhibition (IC50) with TGFβ and at ALK2 were > 1000 nM and 98 nM, respectively.

Regarding `CN1CCN(C2CCN(c3cnc4c(-c5ccnc6cn[nH]c56)cnn4c3)CC2)CC1` [Compound 269], the results for the IC50 with TGFβ and at ALK2 were > 3000 nM and 311 nM, respectively.

For `Cc1cccc2c(-c3cnn4cc(N5CCC(N6CCN(C)CC6)CC5)cnc34)ccnc12` [Compound 270], the IC50 was > 3000 nM in the experiment with TGFβ and 558 nM at ALK2.

Consider `COc1ccc2ncc(F)c(-c3cnn4cc(N5CCC(N6CCN(C)CC6)CC5)cnc34)c2c1` [Compound 271], for which the half-inhibitory concentration (IC50) with TGFβ and on ALK2 was > 3000 nM each time.

Turning to `COc1cc(-c2cnn3cc(N4CCC(N5CCN(C)CC5)CC4)cnc23)ccn1` [Compound 272], the IC50 with TGFβ was > 1000 nM; at ALK2, 153 nM.

Consider `COc1cc(F)c2nccc(-c3cnn4cc(N5CCC(N6CCN(C)CC6)CC5)cnc34)c2c1` [Compound 273], for which the IC50 amounted to 267 nM in the experiment on TGFβ and 14 nM on ALK2.

For the compound `COc1cc(-c2cnn3cc(N4CCC(N5CCN(C)CC5)CC4)cnc23)cc(OC)c1OC` [Compound 274], the IC50 in the experiment on TGFβ amounted to 321 nM; on ALK2 it was 32 nM.

With `Cc1cc(-c2cnn3cc(N4CCC(N5CCN(C)CC5)CC4)cnc23)c2cc(F)ccc2n1` [Compound 275], the IC50 amounted to 72 nM in the experiment on TGFβ and 133 nM at ALK2.

For the compound `Cc1cc(-c2cnn3cc(N4CCC(N5CCN(C)CC5)CC4)cnc23)c2cc(F)cc(F)c2n1` [Compound 276], the half-inhibitory concentration (IC50) came out at 64 nM in the experiment with TGFβ and 164 nM at ALK2.

As for `CN1CCN(C2CCN(c3cnc4c(-c5ccncc5)cnn4c3)CC2)CC1` [Compound 277], the half-maximal inhibitory concentration (IC50) was > 3000 nM in the experiment with TGFβ and > 1000 nM on ALK2.

As to `Cc1ccc2nccc(-c3cnn4cc(N5CCC(N6CCN(C)CC6)CC5)cnc34)c2c1F` [Compound 278], the IC50 in the experiment with TGFβ came to 897 nM; at ALK2, 31 nM.

For `CNc1ccc2nccc(-c3cnn4cc(N5CCC(N6CCN(C)CC6)CC5)cnc34)c2c1` [Compound 279], the IC50 is > 1000 nM with TGFβ and 55 nM at ALK2.

On to `CN1CCN(C2CCN(c3cnc4c(-c5ccnc6ccc(N(C)C)cc56)cnn4c3)CC2)CC1` [Compound 280], for which the IC50 with TGFβ was > 2000 nM; on ALK2, 26 nM.

Regarding `CC(=O)Nc1ccc2nccc(-c3cnn4cc(N5CCC(N6CCN(C)CC6)CC5)cnc34)c2c1` [Compound 281], the IC50 in the experiment with TGFβ and on ALK2 was > 3000 nM throughout.

For the compound `COc1cc2c(-c3cnn4cc(N5CC6(CN(C)C6)C5)cnc34)ccnc2cc1F` [Compound 282], the concentration for half-maximal inhibition (IC50) with TGFβ stood at 96 nM; on ALK2, 10 nM.

As for `COc1cc2c(-c3cnn4cc(N5CCC6(CC5)CN(C)C6)cnc34)ccnc2cc1F` [Compound 290], the figures for the half-inhibitory concentration (IC50) in the experiment with TGFβ and on ALK2 were 63 nM and 12 nM, respectively.

In the case of `CN1CCN(C2CN(c3cnc4c(-c5cccc6c(C(N)=O)cccc56)cnn4c3)C2)CC1` [Compound 307], the IC50 was > 3000 nM with TGFβ and > 1000 nM at ALK2.

For `Cc1cc2c(-c3cnn4cc(N5CC(N6CCN(C)CC6)C5)cnc34)ccnc2cc1F` [Compound 308], the 50% inhibitory concentration (IC50) in the experiment on TGFβ came out at 595 nM; at ALK2 it was 159 nM.

`COc1cc(-c2cnn3cc(N4CC(N5CCN(C)CC5)C4)cnc23)cc(OC)c1OC` [Compound 309]: the results for the half-maximal inhibitory concentration (IC50) with TGFβ and at ALK2 were 335 nM and 28 nM, respectively.

Take `Cc1cc(-c2cnn3cc(N4CC(N5CCN(C)CC5)C4)cnc23)c2ccc(F)cc2n1` [Compound 310]: the IC50 turned out to be 38 nM in the experiment with TGFβ and 21 nM on ALK2.

For the compound `Cc1cc(-c2cnn3cc(N4CC(N5CCN(C)CC5)C4)cnc23)c2cc(F)cc(F)c2n1` [Compound 311], the values for the 50% inhibitory concentration (IC50) in the experiment on TGFβ and at ALK2 were 60 nM and 33 nM, respectively.

Turning to `CN1CCN(C2CN(c3cnc4c(-c5ccncc5)cnn4c3)C2)CC1` [Compound 313], the IC50 in the experiment with TGFβ is > 3000 nM; on ALK2, 2 nM.

Regarding `COc1cc(F)c2nccc(-c3cnn4cc(N5CC(N6CCN(C)CC6)C5)cnc34)c2c1` [Compound 314], the IC50 in the experiment with TGFβ is 27 nM; at ALK2 it was 8 nM.

For the compound `Cc1cc(-c2cnn3cc(N4CC(N5CCN(C)CC5)C4)cnc23)c2ccc(F)c(F)c2n1` [Compound 315], the IC50 in the experiment with TGFβ amounted to 30 nM; at ALK2 it was 23 nM.

Regarding `Cc1cc(-c2cnn3cc(N4CC(N5CCN(C)CC5)C4)cnc23)c2cccc(F)c2n1` [Compound 316], the 50% inhibitory concentration (IC50) is < 20 nM with TGFβ and 22 nM on ALK2.

`[2H]C([2H])([2H])c1ccc2nccc(-c3cnn4cc(N5CCC(N6CCN(C)CC6)CC5)cnc34)c2c1` [Compound 320]: the 50% inhibitory concentration (IC50) stood at 605 nM with TGFβ and 27 nM on ALK2.

What is called IC50 is the concentration that gives 50% inhibition.

Values taken from patent US20230000869A1, “NOVEL ALK2 INHIBITORS AND METHODS FOR INHIBITING BMP SIGNALING” (The Brigham and Women's Hospital, Inc., priority 2017, published 2023).
